Source: PubChem BioAssay AID1259407 (Chemical Carcinogenesis Research Information System (CCRIS), 2018)
The source made the active and inactive calls. No rule for the calls is given here.

Tested on: CCRIS mutagenicity, Ames/micronucleus/aberration tests
Test: CCRIS mutagenicity studies
[1] = Test System: AMES SALMONELLA TYPHIMURIUM, Strain/Indicator: TA97, Metabolic Activation: NONE, Method: STANDARD PLATE
[2] = Test System: AMES SALMONELLA TYPHIMURIUM, Strain/Indicator: TA97, Metabolic Activation: RAT, LIVER, S-9, AROCLOR 1254, Method: STANDARD PLATE
[3] = Test System: AMES SALMONELLA TYPHIMURIUM, Strain/Indicator: TA98, Metabolic Activation: NONE, Method: STANDARD PLATE
[4] = Test System: AMES SALMONELLA TYPHIMURIUM, Strain/Indicator: TA98, Metabolic Activation: RAT, LIVER, S-9, AROCLOR 1254, Method: STANDARD PLATE
[5] = Test System: AMES SALMONELLA TYPHIMURIUM, Strain/Indicator: TA100, Metabolic Activation: NONE, Method: STANDARD PLATE
[6] = Test System: AMES SALMONELLA TYPHIMURIUM, Strain/Indicator: TA100, Metabolic Activation: RAT, LIVER, S-9, AROCLOR 1254, Method: STANDARD PLATE

SMILES | mutagenic call [1] | mutagenic call [2] | mutagenic call [3] | mutagenic call [4] | mutagenic call [5] | mutagenic call [6] | further results
Nc1ccc(CO)c([N+](=O)[O-])c1 |  |  |  |  |  |  | mutagenic call (Test System: AMES SALMONELLA TYPHIMURIUM, Strain/Indicator: TA98, Metabolic Activation: NONE, Method: PREINCUBATION): active; positive; mutagenic call (Test System: AMES SALMONELLA TYPHIMURIUM, Strain/Indicator: TA98, Metabolic Activation: RAT, LIVER, S-9, PHENOBARBITAL AND 5,6-BENZOFLAVONE, Method: PREINCUBATION): active; positive; mutagenic call (Test System: AMES SALMONELLA TYPHIMURIUM, Strain/Indicator: TA100, Metabolic Activation: NONE, Method: PREINCUBATION): active; positive; mutagenic call (Test System: AMES SALMONELLA TYPHIMURIUM, Strain/Indicator: TA100, Metabolic Activation: RAT, LIVER, S-9, PHENOBARBITAL AND 5,6-BENZOFLAVONE, Method: PREINCUBATION): active; positive
COP(=O)(SC)SC | inactive; negative | inactive; negative | inactive; negative | inactive; negative | inactive; negative | inactive; negative | mutagenic call (Test System: AMES SALMONELLA TYPHIMURIUM, Strain/Indicator: TA97, Metabolic Activation: RAT, LIVER, S-9, AROCLOR 1254, Method: PREINCUBATION): inactive; negative; mutagenic call (Test System: AMES SALMONELLA TYPHIMURIUM, Strain/Indicator: TA98, Metabolic Activation: RAT, LIVER, S-9, AROCLOR 1254, Method: PREINCUBATION): inactive; negative; mutagenic call (Test System: AMES SALMONELLA TYPHIMURIUM, Strain/Indicator: TA100, Metabolic Activation: RAT, LIVER, S-9, AROCLOR 1254, Method: PREINCUBATION): inactive; negative
O=C1OC(O)C(CCl)=C1Cl (centres undefined) | active; positive |  | active; positive |  |  |  | mutagenic call (Test System: AMES SALMONELLA TYPHIMURIUM, Strain/Indicator: TA102, Metabolic Activation: NONE, Method: STANDARD PLATE): active; positive; mutagenic call (Test System: AMES SALMONELLA TYPHIMURIUM, Strain/Indicator: TA1535, Metabolic Activation: NONE, Method: STANDARD PLATE): active; positive; mutagenic call (Test System: CHINESE HAMSTER OVARY, Strain/Indicator: CHO-KTL3 (HPRT)/6-THIOGUANINE, Metabolic Activation: NONE): active; positive; mutagenic call (Test System: UDS RAT HEPATOCYTES, Strain/Indicator: THYMIDINE INCORPORATION, Metabolic Activation: NONE, Method: AUTORADIOGRAPHY): active; positive
Cc1ccc2c(C)c3ccccc3c(C)c2c1 |  |  | active; positive | active; positive | inactive; negative | active; positive | 
Cn1cnc2c(NO)ncnc21 | inactive; negative | inactive; negative | inactive; negative | active; positive | inactive; negative | inactive; negative | 
